Patent publication US12606533B2, “3-phenylpropylamine derivative” (DAIICHI SANKYO COMPANY, LIMITED, priority 2023, dated 2026)

What was measured:
NCI-H295R cells = assay: Proliferation inhibitory action on NCI-H295R (CellTiter-Glo, 7 days); format: cell-based, human; conditions: Homo sapiens, NCI-H295R, 168 h
Description: DMSO solutions of each compound were serially diluted with DMSO using a D300e Digital Dispenser (TECAN), and added to a 384-well plate (Thermo Fisher Scientific Inc.). NCI-H295R cells were seeded in a 384-well plate at 2×10^3 cells/40 μL/well and cultured for 7 days in a 37° C., 5% CO2 incubator. […] On the first day of culture (day 0) and the seventh day of culture (day 7), 10 μL/well of CellTiter-Glo (registered trademark) 2.0 Assay (Promega) was added, and the luminescence signal was detected using a multimode plate reader (EnVision, PerkinElmer). The cell proliferation rate was calculated from the luminescence amount on the day of compound addition (CO), the luminescence amount of the compound-free group after 7 days of culture (C7), and the luminescence amount of the compound-added group (T7), based on the following formula.

SF-1 = molecular target: T1, SF-1 (Homo sapiens, UniProt Q13285); assay: SF1 degradation induction in NCI-H295R SF-1-HiBiT cells (HiBiT DC50); format: cell-based; conditions: 24 hr, concentration that induces 50% degradation of SF-1
T1 construct: NCI-H295R SF-1-HiBiT cells with HiBiT tag knocked in at the endogenous SF1 locus; host or cells: NCI-H295R SF-1-HiBiT (knock-in at endogenous locus)
Description: NCI-H295R SF-1-HiBiT cells were seeded in a 384-well plate (Thermo Fisher Scientific Inc.) at 1×10^4 cells/50 μL/well and cultured at 37° C. in a 5% CO2 incubator for 24 hr. DMSO solutions of each compound were serially diluted with DMSO using a D300e Digital Dispenser (TECAN), added to a 384-well plate, and cultured in a 5% CO2 incubator at 37° C. for 24 hr. […] After completion of culture, the medium was discarded, and Nano-Glo (registered trade mark) HiBiT Lytic Detection System (Promega, Cat. No. N3040) was added at 20 μL/well and stirred with a plate mixer. Luminescence signals were then detected using a multimode plate reader (EnVision Xcite, PerkinElmer). The SF-1 protein degradation rate was calculated from the amount of luminescence (C) in the compound-free group and the amount of luminescence (T) in the compound-added group, based on the following formula.
The obtained data was analyzed using GraphPad Prism9 (GraphPad Software Inc.) or Genedata Screener (Genedata AG) to calculate the concentration that induces 50% degradation of SF-1 (DC50 value).

| SMILES | GI50 (NCI-H295R cells) [nM] | DC50 (SF-1) [nM] |
| --- | --- | --- |
| COc1ccc([C@]2(CCN(Cc3ccc(OC4CC5(CCN(CC(=O)Nc6ccc7c(c6)C(=O)N(C6CCC(=O)NC6=O)C7=O)CC5)C4)cc3)CC(C)(C)C(F)(F)F)CCOC(C)(C)C2)cc1 (stereo partly drawn) [AQ1, N-[2-(2,6-Dioxopiperidin-3-yl)-1,3-dioxo-2,3-dihydro-1H-isoindol-5-yl]-2-[2-(4-{[{2-[(4R)-4-(4-methoxyphenyl)-2,2-dimethyltetrahydro-2H-pyran-4-yl]ethyl}(3,3,3-trifluoro-2,2-dimethylpropyl)amino]methyl}phenoxy)-7-azaspiro[3.5]nonan-7-yl]acetamide] | 286 | 56 |
| COc1ccc([C@]2(CCN(Cc3cc(F)c(C4=CCC(C(=O)N5CCN(Cc6ccc7c(c6)n(C)c(=O)n7C6CCC(=O)NC6=O)CC5)CC4)c(F)c3)CC(C)(C)C(F)(F)F)CCOC(C)(C)C2)cc1 (stereo partly drawn) [AU4, 3-[5-({4-[(2′,6′-Difluoro-4′-{[{2-[(4R)-4-(4-methoxyphenyl)-2,2-dimethyltetrahydro-2H-pyran-4-yl]ethyl)(3,3,3-trifluoro-2,2-dimethylpropyl)amino]methyl}-2,3,4,5-tetrahydro[biphenyl]-4-yl)carbonyl]piperazin-1-yl}methyl)-3-methyl-2-oxo-2,3-dihydro-1H-benzimidazol-1-yl]piperidine-2,6-dione] | 60 | 9.3 |
| COc1ccc([C@]2(CCN(Cc3ccc(C4=CCC(C(=O)N5CCN(Cc6ccc7c(c6)n(C)c(=O)n7C6CCC(=O)NC6=O)CC5)CC4)c(F)c3F)CC(C)(C)C(F)(F)F)CCOC(C)(C)C2)cc1 (stereo partly drawn) [AV2, 3-[5-({4-[(2′,3′-Difluoro-4′-{[{2-[(4R)-4-(4-methoxyphenyl)-2,2-dimethyltetrahydro-2H-pyran-4-yl]ethyl}(3,3,3-trifluoro-2,2-dimethylpropyl)amino]methyl}-2,3,4,5-tetrahydro[biphenyl]-4-yl)carbonyl]piperazin-1-yl}methyl)-3-methyl-2-oxo-2,3-dihydro-1H-benzimidazol-1-yl]piperidine-2,6-dione] | 61 | 7.4 |
| COc1ccc([C@]2(CCN(Cc3ccc(C4=CCC(C(=O)N[C@H]5C[C@H](Nc6ccc7c(c6)n(C)c(=O)n7C6CCC(=O)NC6=O)C5)CC4)cc3)CC(C)(C)C(F)(F)F)CCOC(C)(C)C2)cc1 (stereo partly drawn) [AY8, N-(Trans-3-{[1-(2,6-dioxopiperidin-3-yl)-3-methyl-2-oxo-2,3-dihydro-1H-benzimidazol-5-yl]amino}cyclobutyl)-4′-{[{2-[(4R)-4-(4-methoxyphenyl)-2,2-dimethyltetrahydro-2H-pyran-4-yl]ethyl}(3,3,3-trifluoro-2,2-dimethylpropyl)amino]methyl}-2,3,4,5-tetrahydro[biphenyl]-4-carboxamide] | 71 | 7.3 |
| COc1ccc([C@]2(CCN(Cc3ccc4nn(C5CC6(CCN(CC(=O)Nc7ccc8c(c7)n(C)c(=O)n8C7CCC(=O)NC7=O)CC6)C5)cc4c3)CC(C)(C)C(F)(F)F)CCOC(C)(C)C2)cc1 (stereo partly drawn) [AZ8, N-[1-(2,6-Dioxopiperidin-3-yl)-3-methyl-2-oxo-2,3-dihydro-1H-benzimidazol-5-yl]-2-[2-(5-{[{2-[(4R)-4-(4-methoxyphenyl)-2,2-dimethyltetrahydro-2H-pyran-4-yl]ethyl}(3,3,3-trifluoro-2,2-dimethylpropyl)amino]methyl}-2H-indazol-2-yl)-7-azaspiro[3.5]nonan-7-yl]acetamide] | 28 | 7 |
| COc1ccc([C@]2(CCN(Cc3ccc4c(cnn4C4CC5(CCN(CC(=O)Nc6ccc7c(c6)n(C)c(=O)n7C6CCC(=O)NC6=O)CC5)C4)c3)CC(C)(C)C(F)(F)F)CCOC(C)(C)C2)cc1 (stereo partly drawn) [BA6, N-[1-(2,6-Dioxopiperidin-3-yl)-3-methyl-2-oxo-2,3-dihydro-1H-benzimidazol-5-yl]-2-[2-(5-{[{2-[(4R)-4-(4-methoxyphenyl)-2,2-dimethyltetrahydro-2H-pyran-4-yl]ethyl)(3,3,3-trifluoro-2,2-dimethylpropyl)amino]methyl}-1H-indazol-1-yl)-7-azaspiro[3.5]nonan-7-yl]acetamide] | 23 | 4.9 |

The remaining lines, values ahead:

| GI50 (NCI-H295R cells) [nM] | DC50 (SF-1) [nM] | SMILES |
| --- | --- | --- |
| 39 | 5.4 | COc1ccc([C@]2(CCN(Cc3ccc(C4=CC[C@H](CN5CCN(C(=O)c6ccc7c(c6)n(C)c(=O)n7[C@@H]6CCC(=O)NC6=O)CC5)CC4)cc3)CC(C)(C)C(F)(F)F)CCOC(C)(C)C2)cc1 [AO7, (3R)-3-{5-[(4-{[(4R)-4′-{[{2-[(4R)-4-(4-Methoxyphenyl)-2,2-dimethyltetrahydro-2H-pyran-4-yl]ethyl}(3,3,3-trifluoro-2,2-dimethylpropyl)amino]methyl}-2,3,4,5-tetrahydro[biphenyl]-4-yl]methyl}piperazin-1-yl)carbonyl]-3-methyl-2-oxo-2,3-dihydro-1H-benzimidazol-1-yl}piperidine-2,6-dione] |
| 68 | 4.1 | COc1ccc([C@]2(CCN(Cc3ccc(C4=CC[C@H](CN5CCN(C(=O)c6ccc7c(c6)n(C)c(=O)n7[C@H]6CCC(=O)NC6=O)CC5)CC4)cc3)CC(C)(C)C(F)(F)F)CCOC(C)(C)C2)cc1 [AP6, (3S)-3-{5-[(4-{[(4R)-4′-{[{2-[(4R)-4-(4-Methoxyphenyl)-2,2-dimethyltetrahydro-2H-pyran-4-yl]ethyl}(3,3,3-trifluoro-2,2-dimethylpropyl)amino]methyl}-2,3,4,5-tetrahydro[biphenyl]-4-yl]methyl}piperazin-1-yl)carbonyl]-3-methyl-2-oxo-2,3-dihydro-1H-benzimidazol-1-yl}piperidine-2,6-dione] |
| 82 | 6.5 | COc1ccc([C@]2(CCN(Cc3ccc(C4=CCC(CN5CCN(C(=O)c6ccc7c(c6)n(C)c(=O)n7C6CCC(=O)NC6=O)CC5)CC4)cc3)CC3(C(F)(F)F)CCC3)CCOC(C)(C)C2)cc1 (stereo partly drawn) [AR7, 3-(5-{[4-({4′-[({2-[(4R)-4-(4-Methoxyphenyl)-2,2-dimethyltetrahydro-2H-pyran-4-yl]ethyl}{[1-(trifluoromethyl)cyclobutyl]methyl}amino)methyl]-2,3,4,5-tetrahydro[biphenyl]-4-yl}methyl)piperazin-1-yl]carbonyl}-3-methyl-2-oxo-2,3-dihydro-1H-benzimidazol-1-yl)piperidine-2,6-dione] |
| 56 | 4.1 | COc1ccc([C@]2(CCN(Cc3ccc(C4=CCC(C(=O)N5CCN(Cc6ccc7c(c6)n(C)c(=O)n7C6CCC(=O)NC6=O)CC5)CC4)c(C)c3)CC(C)(C)C(F)(F)F)CCOC(C)(C)C2)cc1 (stereo partly drawn) [AS7, 3-[5-({4-[(4′-{[{2-[(4R)-4-(4-Methoxyphenyl)-2,2-dimethyltetrahydro-2H-pyran-4-yl]ethyl)(3,3,3-trifluoro-2,2-dimethylpropyl)amino]methyl}-2′-methyl-2,3,4,5-tetrahydro[biphenyl]-4-yl)carbonyl]piperazin-1-yl}methyl)-3-methyl-2-oxo-2,3-dihydro-1H-benzimidazol-1-yl]piperidine-2,6-dione] |
| 45 | 7.7 | COc1ccc([C@]2(CCN(Cc3ccc(C4=CCC(C(=O)N5CCN(Cc6ccc7c(c6)n(C)c(=O)n7C6CCC(=O)NC6=O)CC5)CC4)cc3F)CC(C)(C)C(F)(F)F)CCOC(C)(C)C2)cc1 (stereo partly drawn) [AT3, 3-[5-({4-[(3′-Fluoro-4′-{[{2-[(4R)-4-(4-methoxyphenyl)-2,2-dimethyltetrahydro-2H-pyran-4-yl]ethyl}(3,3,3-trifluoro-2,2-dimethylpropyl)amino]methyl}-2,3,4,5-tetrahydro[biphenyl]-4-yl)carbonyl]piperazin-1-yl}methyl)-3-methyl-2-oxo-2,3-dihydro-1H-benzimidazol-1-yl]piperidine-2,6-dione] |
| 61 | 7.1 | COc1ccc([C@]2(CCN(Cc3ccc(C4=CCC(CN5CCN(Cc6ccc7c(c6)n(C)c(=O)n7C6CCC(=O)NC6=O)CC5=O)CC4)cc3)CC(C)(C)C(F)(F)F)CCOC(C)(C)C2)cc1 (stereo partly drawn) [AX3, 3-[5-({4-[(4′-{[{2-[(4R)-4-(4-Methoxyphenyl)-2,2-dimethyltetrahydro-2H-pyran-4-yl]ethyl)(3,3,3-trifluoro-2,2-dimethylpropyl)amino]methyl}-2,3,4,5-tetrahydro[biphenyl]-4-yl)methyl]-3-oxopiperazin-1-yl}methyl)-3-methyl-2-oxo-2,3-dihydro-1H-benzimidazol-1-yl]piperidine-2,6-dione] |
